Laboratory results published in patent US4097496A, “Novel cyclopentane derivatives” (Hoechst Aktiengesellschaft, priority 1973, dated 1978).
≈ marks a conversion by molar mass, not a printed value.

Assays:
[1] = system: PGE2-contraction in the isolated guinea pig ileum; assay: Inhibition of the PGE2-contraction in the isolated guinea pig ileum; conditions: Cavia porcellus, agonist PGE2 200 ng/ml; for IC50: 3 min pre-treatment, probit analysis, 37° C; for inhibition at 10 µg/mL: at 10 μg/ml
Experimental: (§1) It is surprising that the compounds of the formula I which are closely related to the natural prostaglandins with regard to their structure, as it has been mentioned above, have a strong anti-prostaglandin effect. If, for example, a solution of the compounds of the invention in water is added to the isolated guinea pig ileum or uterus and if for example prostaglandin E2 or F2 α is added to this solution, in concentrations which normally stimulate the isolated ileum or the isolated uterus to strong contractions, only a weaker or no spasmogenic effect of the prostaglandins E2 and F2 α can be detected - depending on the concentrations used.
As test animals were used brown guinea pigs, males and females having a weight of from about 300 to 400 g. The animals were killed by a blow into the neck, the terminal ileum was rapidly taken off and put into a Petri dish containing a pre-heated Tyrode's solution. The intestine was decomposed into four equal sections (2 to 3 cm). Then the individual sections were put into an organ liquor filled with a Tyrode's solution and bubbled through by oxygen and they were fixed. The bath temperature was 37° C. Composition of the Tyrode's solution: […], 0.2 g of KCl, 0.55 g of CaCl2, 0.2 g of Mg Cl2, 1.0 g of glucose, 1.0 g of NaHCO3 in 1000 ml of distilled water. The free end was connected with the writing lever by a thread. The charge of the thread was 1 g. After a 30 minutes' recovery time the test itself was initiated. The test consisted in a pre-treatment with the antagonist to be tested and in the administration of the agonist three minutes later. The resulting contraction was compared with the initial contraction achieved by the administration of the agonist only. This latter contraction was considered as being 100%, and the contraction determined by the compound of the invention acting as antagonist was expressed in percent with regard to this basic contraction. All substances were dissolved in absolute alcohol and further diluted to their final concentrations with phosphate buffer (pH 7.4). As agonists were used prostaglandin E2 (UPJOHN) in the isolated ileum, and PGF2 in the isolated uterus.
The average concentration was determined by means of the probit analysis. The straight line resulting from this method allowed to read the average inhibiting concentration (Table I).
Inhibition of the PGE2 - and PGF2α -contraction in the isolated guinea pig ileum or uterus

[2] = system: PGF2α-contraction in the isolated guinea pig uterus; assay: Inhibition of the PGF2α-contraction in the isolated guinea pig uterus; conditions: Cavia porcellus, agonist PGF2α 40 ng/ml, deJalon solution, probit analysis
Experimental: as §1
As test animals were used brown guinea pigs, males and females having a weight of from about 300 to 400 g. The animals were killed by a blow into the neck, the terminal ileum was rapidly taken off and put into a Petri dish containing a pre-heated Tyrode's solution. The intestine was decomposed into four equal sections (2 to 3 cm). […] This latter contraction was considered as being 100%, and the contraction determined by the compound of the invention acting as antagonist was expressed in percent with regard to this basic contraction. […]
The average concentration was determined by means of the probit analysis. The straight line resulting from this method allowed to read the average inhibiting concentration (Table I). […]

[3] = read-out: inhibition in percent for the corresponding dosis

SMILES	IC50 [1] [µg/mL]	inhibition at 5 µg/mL ([1]; at 5 μg/ml, read-out: inhibition in percent for the corresponding dosis) [%]	inhibition at 10 µg/mL [1, 3] [%]	IC50 [2] [µg/mL]
CCCCCC(O)/C=C/C1CCC(O)C1(CCCCOCC(=O)O)C(=O)OCC (stereo not drawn) [Example 30, (5RS,3"SR)-1-(6'-Carboxy-5'-oxahexyl)-2-hydroxy-5-[3"-hydroxy-trans-1"-octentyl]-cyclopentane-carboxylic acid ethyl ester]	< 5	80		
CCCCCC(/C=C/C1CCC(=O)C1(CCCCC(C)CC(=O)OCC)C(=O)OCC)OC1CCCCO1 (stereo not drawn) [Example 10, (5RS,3"SR)-1-(6'-Ethoxycarbonyl-5'-methylhexyl)-2-oxo-5-[3"-(2'"-tetrahydropyranyloxy)-trans-1"-octenyl]-cyclopentane-carboxylic acid ethyl ester]	> 10		10	
CCCCCC(/C=C/C1CCC(O)C1(C/C=C/COCC(=O)O)C(=O)OCC)OC1CCCCO1 (stereo not drawn) [Example 35, (5RS,3"SR)-1-(6'-Carboxy-5'-oxa-trans-2'-hexenyl)-2-hydroxy-5-[3"-(2'"-tetrahydropyranyloxy)-trans-1"-octenyl]cyclopntane-carboxylic acid ethyl ester]	2.3 (≈ 4.63 µM)			
CCCCCC(/C=C/C1CCC(O)C1(Cc1ccccc1CCCC(=O)O)C(=O)OCC)OC1CCCCO1 (stereo not drawn) [Example 45, (5RS,3'"SR)-1-[2'-(3"-Carboxypropyl)-benzyl]-2-hydroxy-5-[3'"-(2""-tetrahydropyranyloxy)-trans-1'"-octenyl]-cyclopentane-carboxylic acid ethyl ester]	~10 (≈ 18.4 µM)			
CCCCCC(/C=C/C1CCC(=O)C1(CCC(C)CCCC(=O)OCC)C(=O)OCC)OC1CCCCO1 (stereo not drawn) [Example 4, (5 RS, 3" SR)-1-(6'-Ethoxycarbonyl-3'-methylhexyl)-2-oxo-5-[3"-(2"'-tetrahydropyranyloxy)-trans-1"-octenyl]-cyclopentane-carboxylic acid ethyl ester]	1.2 (≈ 2.24 µM)			
CCCCCC(/C=C/C1CCC(O)C1(CCCCC(C)CC(=O)O)C(=O)OCC)OC1CCCCO1 (stereo not drawn) [Example 11, (5RS,3"SR)-1-(6'-Carboxy-5'-methylhexyl)-2-hydroxy-5-[3"-(2'"-tetrahydropyranyloxy)-trans-1"-octenyl]-cyclopentane-carboxylic acid ethyl ester]	< 10		80	
CCCCCC(O)/C=C/C1CCC(O)C1(C/C=C/COCC(=O)OCC)C(=O)OCC (stereo not shown) [Example 36]	4.6 (≈ 10.4 µM)			
CCCCCC(O)/C=C/C1CCC(O)C1(C/C=C/COCC(=O)O)C(=O)OCC (stereo not drawn) [Example 37, (5RS,3"SR)-1-(6'-Carboxy-5'-oxa-trans-2'-hexenyl)-2-hydroxy-5-(3"-hydroxy-trans-1"-octenyl)-cyclopentanecarboxylic acid ethyl ester]	< 10		65	
CCCCCC(/C=C/C1CCC(=O)C1(Cc1ccccc1CCCC(=O)OCC)C(=O)OCC)OC1CCCCO1 (stereo not drawn) [Example 44, (5RS,3'"SR)-1-[2'-(3"-Ethoxycarbonylpropyl)-benzyl]-2-oxo-5-[3'"-(2""-tetrahydropyranyloxy)-trans-1'"-octenyl]-cyclopentane-carboxylic acid ethyl ester]	< 10		40	
CCCCCC(/C=C/C1CCC(=O)C1(CCCCCC(C)C(=O)OCC)C(=O)OCC)OC1CCCCO1 (stereo not drawn) [Example 13, (5RS,3"SR)-1-(6'-Ethoxycarbonylheptyl)-2-oxo-5-[3"-(2'"-tetrahydropyranyloxy)-trans-1"-octenyl]-cyclopentane-carboxylic acid ethyl ester]	~5 (≈ 9.32 µM)			
CCCCCC(O)/C=C/C1CCC(O)C1(CCCCCCC(=O)O)C(=O)OCC (stereo not drawn) [Example 3, (5 RS, 3" SR)-1-(6'-carboxyhexyl)-2-hydroxy-5-(3"-hydroxy-trans-1"-octenyl)-cyclopentane-carboxylic acid ethyl ester]				2 (≈ 4.85 µM)
CCCCCC(/C=C/C1CCC(O)C1(CCC(C)CCCC(=O)O)C(=O)OCC)OC1CCCCO1 (stereo not drawn) [Example 5, (5 RS, 3" SR)-1-(6'-Carboxy-3'-methylhexyl)-2-hydroxy-5-[3"-(2"'-tetrahydropyranyloxy)-trans-1"-octenyl]-cyclopentane-carboxylic acid ethyl ester]				10 (≈ 19.6 µM)
CCCCCC(O)/C=C/C1CCC(O)C1(C/C=C\COCC(=O)O)C(=O)OCC (stereo not drawn) [Example 32, (5RS,3"SR)-1-(6'-Carboxy-5'-oxa-cis-2'-hexenyl)-2-hydroxy5-[3"-hydroxy-trans-1"-octenyl]-cyclopentane-carboxylic acid ethyl ester]	~5 (≈ 12.1 µM)			
CCCCCC(O)/C=C/C1CCC(O)C1(Cc1ccccc1CCCC(=O)O)C(=O)OCC (stereo not drawn) [Example 46, (5RS,3'"SR)-1-[2'-(3"-Carboxypropyl)-benzyl]-2-hydroxy-5-[3'"-hydroxy-trans-1'"-octenyl]-cyclopentane-carboxylic acid ethyl ester]	< 10		80	
CCCCCC(/C=C/C1CCC(O)C1(CCCC(C)CCC(=O)O)C(=O)OCC)OC1CCCCO1 (stereo not drawn) [Example 8, (5RS,3"SR)-1-(6'-Carboxy-4'-methylhexyl)-2-hydroxy-5-[3"-(2'"-tetrahydropyranyloxy)-trans-1"-octenyl]-cyclopentane-carboxylic acid ethyl ester]	< 10		80	
